Laboratory results reported in US6812037B1, “Antimitotic compounds” (The University of British Columbia, priority 1999, dated 2004).
Blank lines part the entries; values can stand above or below the compound they belong to.

Tests used:
MCF-7 cells [1] = experiment: ELICA of mitotic cells (Enzyme-Linked Immuno-Cytochemical assay, TG-3 antibody); type: cell-based, human
Protocol: (§1) Cell Culture and Treatment. Human breast carcinoma MCF-7 cells were cultured as monolayers. The cells were seeded at 10,000 per well of 96-well polystyrene tissue culture plates (Falcon) in 200 μl medium and were allowed to grow overnight. Crude extracts of marine organisms were then added at about 10 μg/ml or 1 μg/ml, from 1000-fold stocks in dimethylsulfoxide (DMSO). Untreated samples received an equivalent amount of DMSO and several as negative controls. Cells treated with 100 ng/ml nocodazole (Sigma), from a 1000-fold stock in DMSO, served as positive controls. Cells were incubated for 16-20 hours. The relative number of cells in mitosis was then determined by microscopy, by enzyme-linked immunosorbent assay (ELISA) or by an enzyme-linked cytochemical assay (ELICA), as described below.
ELICA of Miltotic Cells. While the ELISA is accurate and reliable, it requires transferring cell lysates to ELISA plates and many solution changes. The assay of this invention is faster and easier to use for drug screening. […] In a preferred assay of this invention, cells are fixed with formaldehyde in their microtiter culture plates and permeabilized with methanol and detergents. The TG-3 primary antibody and HRP-conjugated secondary antibody may be added sequentially but are preferably added simultaneously. Colorimetric detection of HRP activity remains unchanged. This new assay is termed: an Enzyme-Linked Immuno-Cytochemical assay (ELICA).
After incubation with marine extracts, the medium was withdrawn carefully using a pipetor and 100 μl of 10 mM Tris-HCl (pH 7.4) 150 mM NaCl, containing 3.7% formaldehyde was added to fix the cells for 30 minutes at 4° C. The fixative was removed and replaced with 100 μl of cold (−20° C.) methanol for 5 minutes to permeabilize the fixed cells. The methanol was removed and the wells were rinsed briefly with 200 μl antibody buffer. Then, 100 μl antibody buffer containing 0.1-0.15 μg/ml TG-3 monoclonal antibody and HRP-conjugated goat anti-mouse IgM secondary antibody at a 50-fold dilution, was added to 16-20 hours at 4° C. The plates were washed twice with 200 μl 10 mM Tris-HCl pH 7.4, 0.02% Tween 20™. Then, 100 μl of 120 mM Na2HPO4, 100 mM citric acid (pH 4.0) containing […] 2,2′-azino-bis(-3ethylbenz-thiazoline-6-sulfonic acid) and 0.01% hydrogen peroxide was added for 1 hour at room temperature and the absorbance at 405 nm was measured.

MCF-7 cells [2] = experiment: Mitotic arrest of MCF-7 cells, counting mitotic cells by microscopy (mitotic spreads); type: cell-based, human
Protocol: as §1
Screens for Antimitotic Agents. MCF-7 cells were incubated for 20 hours with different concentrations of the antimitotic drug paclitaxel, and the proportion of cells arrested in mitosis was measured by counting mitotic cells in the microscope, and by ELISA. Paclitaxel induced mitotic arrest in a concentration-dependent manner with half-maximal activity at 10 nM measured by microscopy (FIG. 1A) and at 4 nM measured by ELISA (FIG. 1B, □)
Further comparison of the antimitotic activities of eleutherobin and desmethyleleutherobin was done using microscopic examination of a standard cell spread.

[3] = system: SCCVII squamous cell carcinoma; experiment: In vivo antimitotic/anticancer activity, tumor cell survival by colony formation; parameters: species or system C3H mice
Protocol: In Vivo Antimitotic/Anticancer Activity. C3H mice of approximately 26 g bearing SCCVII squamous cell carcinoma (tumor size approximately 0.45 g) were injected intraperitoneally with desmethyleleutherobin. 24 hours later, the mice were intravenously injected with Hoechst 33342™ and then sacrificed. The tumors were removed and single cell suspensions prepared and sorted on the basis of a concentration gradient of Hoechst 33342™, to provide cells sorted according to varying distance from the blood supply. The cells were plated and survival analyzed by observing colony formation.

MCF-7 cells [4] = experiment: Western blot with TG-3 antibody, densitometric scanning of the 105-kDa band; type: cell-based, human; conditions: cells treated for 20 hours with nocodazole vs cycling MCF-7 cells
Protocol: The TG-3 monoclonal antibody, originally described as a marker of Alzheimer's disease, is highly specific for mitotic cells. […] In Western blots, the antibody reacts with a 105-kDa protein identified as a mitotically phosphorylated form of nucleolin, that is present in abundance in extracts of cells treated for 20 hours with the antimitotic agent nocodazole but present at only low levels in extracts from cycling MCF-7 cells. Densitometric scanning of the bands on Western blots in these examples show a 27-fold difference in intensity between nocodazole-treated and untreated cells, corresponding well to the difference in the number of mitotic cells in the two samples: 80% for the nocodazole-treated sample and 3% for the untreated sample, as measured by microscopy.

MCF-7 cells [5] = experiment: ELISA of mitotic cells (TG-3 antibody); type: cell-based, human
Protocol: TG-3 also recognizes mitotic cells in EUISA. In the ELISA assay, the cells may be grown in multi-well plates, lysed and transferred to protein-binding ELISA plates for adsorption to the plastic surface. The antigen may be detected by incubating with TG-3 antibody, an HRP-conjugated secondary antibody and performing a calorimetric determination of HRP activity.
as §1, with “Cells treated with 100 ng/ml nocodazole (Sigma), from a 1000-fold stock in DMSO, served as positive controls. Cells were incubated for 16-20 hours.” left out
ELISA of Mitotic Cells. […] Finally, 100 μl of 120 mM Na2HPO4, 100 mM citric acid (pH 4.0) containing 0.5 μg/ml 2,2′-azino-bis (3-ethyl-benzthiazoline-6-sulfonic acid) and 0.01% hydrogen peroxide was added for 1 hour at room temperature and absorbance at 405 nm was determined using a Dynex MRX™ plate reader.

[6] = MCF-7 cells, FIG. 2, read-out: IC50, antimitotic activity as determined by ELICA

Compound: COC(=O)/C1=C/[C@@H]2[C@@H](C(C)C)CC=C(C)[C@@H]2C[C@H](OC(=O)/C=C/c2cn(C)cn2)[C@]2(C)C=C[C@@]1(O)O2 [Sarcodictyin A, sarcodictyin A]
- IC50 (MCF-7 cells [1]; [6]): ~2000 nM

Compound: CO[C@]12C=C[C@](C)(O1)[C@@H](OC(=O)/C=C\c1cn(C)cn1)C[C@H]1C(C)=CC[C@H](C(C)C)[C@H]1/C=C\2CO[C@@H]1OC[C@@H](O)[C@@H](O)[C@@H]1OC(C)=O [Z-eleutherobin]
- IC50 (MCF-7 cells [1]; [6]): ~250 nM

Compound: CO[C@]12C=C[C@](C)(O1)[C@@H](OC(=O)/C=C/c1cn(C)cn1)C[C@@H]1[C@H](/C=C\2CO[C@@H]2OC[C@@H](O)[C@@H](O)[C@@H]2OC(C)=O)[C@@H](C(C)C)C=C[C@@]1(C)O [caribaeoside]
- IC50 (MCF-7 cells [1]; [6]): ~20000 nM

Compound: CC(=O)O[C@@H]1[C@H](OC/C2=C/[C@@H]3[C@@H](C(C)C)CC=C(C)[C@@H]3C[C@H](OC(=O)/C=C/c3cn(C)cn3)[C@]3(C)C=C[C@@]2(O)O3)OC[C@@H](O)[C@H]1O [desmethyleleutherobin]
- IC50 (MCF-7 cells [2]; MCF-7 cells, FIG. 4, read-out: IC50, antimitotic activity by microscopic examination of a standard cell spread): ~25 nM
- IC50 (MCF-7 cells [1]; [6]): ~20 nM
- overt toxicity to the mice ([3]; intraperitoneal injection, C3H mice bearing SCCVII tumor): no overt toxicity
- tumor cells killed ([3]; intraperitoneal, doses of about 100 μg or more per mouse, 24 hours, FIG. 5): about 90%

Compound: CO[C@]12C=C[C@](C)(O1)[C@@H](OC(=O)/C=C/c1cn(C)cn1)C[C@H]1C(C)=CC[C@H](C(C)C)[C@H]1/C=C\2COC1OCC(O)C(O)C1OC(C)=O (stereo partly drawn) [eleutherobin]
- IC50 (MCF-7 cells [2]; Homo sapiens, MCF7, read-out: IC50, antimitotic activity by microscopic examination of a standard cell spread): ~200 nM
- IC50 (MCF-7 cells [1]; Homo sapiens, MCF7, read-out: IC50, antimitotic activity as determined by ELICA): ~100 nM

Compound: CO[C@]12C=C[C@](C)(O1)[C@@H](OC(=O)/C=C/c1cn(C)cn1)C[C@H]1C(C)=CC[C@H](C(C)C)[C@H]1/C=C\2CO[C@@H]1OC[C@@H](O)[C@@H](OC(C)=O)[C@@H]1O [isoeleutherobin A]
- IC50 (MCF-7 cells [1]; [6]): ~50 nM

Compound: COC(=O)Nc1nc2ccc(C(=O)c3cccs3)cc2[nH]1 [nocodazole]
- number of mitotic cells as measured by microscopy (MCF-7 cells [2]; cells treated for 20 hours with nocodazole, untreated sample 3%): 80%
- difference in band intensity between treated and untreated cells (TG-3 Western blot) (MCF-7 cells [4]): 27 fold

- EC50 (MCF-7 cells [2]; Homo sapiens, MCF7, MCF-7 cells, 20 hours incubation, FIG. 1A, read-out: half-maximal activity, mitotic arrest measured by microscopy): 10 nM
- EC50 (MCF-7 cells [5]; Homo sapiens, MCF7, 20 hours incubation, FIG. 1B, read-out: half-maximal activity, mitotic arrest measured by ELISA): 4 nM
- EC50 (MCF-7 cells [1]; Homo sapiens, MCF7, MCF-7 cells, FIG. 1B, read-out: half-maximal activity, mitotic arrest detected by ELICA): 1.5 nM
Compound: CC(=O)O[C@H]1C(=O)[C@@]2(C)[C@H]([C@H](OC(=O)c3ccccc3)[C@]3(O)C[C@H](OC(=O)[C@H](O)[C@@H](NC(=O)c4ccccc4)c4ccccc4)C(C)=C1C3(C)C)[C@]1(OC(C)=O)CO[C@@H]1C[C@@H]2O [paclitaxel]

Compound: WF-1360 [Compound A]
- IC50 (MCF-7 cells [5]; read-out: half-maximal antimitotic activity (IC50) as determined by ELISA): 52 nM

Compound: caribaeolin
- IC50 (MCF-7 cells [1]; [6]): ~20000 nM

Compound: desacetyleleutherobin
- IC50 (MCF-7 cells [1]; [6]): ~400 nM
